Experiments:
PTRGER4 (EP4) = PTRGER4 (EP4) (Homo sapiens, UniProt P35408); assay: cell-based;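 also: assay plate preincubated 15 min at 37 °C, after which PGE2 was added at 20 nM final and incubation continued 120 min at 37 °C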
PTGER2 (EP2) = PTGER2 (EP2) (Homo sapiens, UniProt P43116); assay: cell-based
PTGER2 (EP2), sequence (P43116 whole entry): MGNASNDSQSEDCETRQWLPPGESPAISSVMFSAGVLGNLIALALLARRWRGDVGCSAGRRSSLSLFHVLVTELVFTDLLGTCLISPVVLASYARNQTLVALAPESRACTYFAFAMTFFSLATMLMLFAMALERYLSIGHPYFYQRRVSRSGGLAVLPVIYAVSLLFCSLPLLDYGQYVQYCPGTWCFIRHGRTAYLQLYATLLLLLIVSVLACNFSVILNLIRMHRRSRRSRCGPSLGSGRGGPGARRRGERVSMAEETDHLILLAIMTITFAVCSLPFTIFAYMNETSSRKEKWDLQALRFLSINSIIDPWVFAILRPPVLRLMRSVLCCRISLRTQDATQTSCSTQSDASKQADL

PTRGER4 (EP4), sequence (P35408 whole entry): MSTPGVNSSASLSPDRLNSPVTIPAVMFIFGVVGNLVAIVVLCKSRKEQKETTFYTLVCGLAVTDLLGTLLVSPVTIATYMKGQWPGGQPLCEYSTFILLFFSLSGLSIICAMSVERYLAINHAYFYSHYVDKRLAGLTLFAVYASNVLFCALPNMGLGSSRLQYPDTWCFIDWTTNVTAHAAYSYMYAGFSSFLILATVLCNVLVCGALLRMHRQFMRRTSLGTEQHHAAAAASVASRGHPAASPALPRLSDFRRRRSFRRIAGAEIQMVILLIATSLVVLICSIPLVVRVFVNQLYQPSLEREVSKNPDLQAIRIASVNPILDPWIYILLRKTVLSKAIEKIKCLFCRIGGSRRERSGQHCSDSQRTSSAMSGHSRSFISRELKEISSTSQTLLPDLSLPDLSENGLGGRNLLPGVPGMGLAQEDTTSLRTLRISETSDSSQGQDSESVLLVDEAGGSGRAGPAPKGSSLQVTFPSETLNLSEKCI

SMILES | IC50 (PTRGER4 (EP4)) [nM] | IC50 (PTGER2 (EP2)) [nM]
COc1cc(C(F)(F)F)cc(F)c1CCNc1cc(-c2ccc(C(=O)O)c(SC)c2)ncn1 [Example 230, 4-{6-[2-(2-Fluoro-6-methoxy-4-trifluoromethyl-phenyl)-ethylamino]-pyrimidin-4-yl}-2-methylsulfanyl-benzoic acid] | 152 | 662
CCOc1cc(-c2cc(NCCc3c(F)cccc3F)ncn2)ccc1-c1noc(=O)[nH]1 [Example 233, 3-(4-(64(2,6-Difluorophenethypamino)pyrimidin-4-yl)-2-ethoxyphenyl)-[1,2,4]oxadiazol-5(4H)-one] | 398 | 222
O=C(O)Cc1ccc(-c2cc(NCCc3c(F)cc(Br)cc3F)ncn2)cc1OC(F)(F)F [Example 236, (4-{6-[2-(4-Bromo-2,6-difluoro-phenyl)-ethylamino]-pyrimidin-4-yl}-2-trifluoromethoxy-phenyl)-acetic acid] | 351 | 265
O=CNc1ccc(-c2cc(NCCc3c(F)cc(Br)cc3F)ncn2)cc1 [Example 238, N-(4-{6-[2-(4-Bromo-2,6-difluoro-phenyl)-ethylamino]-pyrimidin-4-yl}-phenyl)-formamide] | 438 | 251
CCOc1cc(-c2cc(NCCc3c(F)cc(Br)cc3F)ncn2)ccc1C(=O)C(=O)O [Example 239, (4-{6-[2-(4-Bromo-2,6-difluoro-phenyl)-ethylamino]-pyrimidin-4-yl}-2-ethoxy-phenyl)-oxo-acetic acid] | 387 | 300
O=c1c(O)c(-c2ccc(-c3cc(NCCc4c(F)cc(Br)cc4F)ncn3)cc2)c1=O [Example 243, 3-(4-{6-[2-(4-Bromo-2,6-difluoro-phenyl)-ethylamino]-pyrimidin-4-yl}-phenyl)-4-hydroxy-cyclobut-3-ene-1,2-dione] | 61 | 41
COC(=O)c1ccc(-c2cc(NCCc3c(F)cc(Br)cc3F)ncn2)cc1SC [Example 246, 4-{6-[2-(4-Bromo-2,6-difluoro-phenyl)-ethylamino]-pyrimidin-4-yl}-2-methylsulfanyl-benzoic acid methyl ester] | 277 | 479
CCOC(=O)CCc1sc(-c2cc(NCCc3c(F)cc(Br)cc3F)ncn2)cc1OCC [Example 247, 3-(5-{6-[2-(4-Bromo-2,6-difluoro-phenyl)-ethylamino]-pyrimidin-4-yl}-3-ethoxy-thiophen-2yl)-propionic acid ethyl ester] | 278 | 799
CCc1cc(-c2cc(NCCc3c(F)cc(Br)cc3F)ncn2)ccc1C(=O)O [Example 249, 4-{6-[2-(4-Bromo-2,6-difluoro-phenyl)-ethylamino]-pyrimidin-4-yl}-2-ethyl-benzoic acid] | 467 | 110
CC(C)Oc1cc(-c2cc(NCCc3c(F)cc(Br)cc3F)ncn2)ccc1C(=O)O [Example 251, 4-{6-[2-(4-Bromo-2,6-difluoro-phenyl)-ethylamino]-pyrimidin-4-yl}-2-isopropoxy-benzoic acid] | 831 | 254
CCc1cc(-c2cc(NCCc3c(F)cc(Br)cc3F)ncn2)cc(Cl)c1CC(=O)O [Example 253, (4-{6-[2-(4-Bromo-2,6-difluoro-phenyl)-ethylamino]-pyrimidin-4-yl}-2-chloro-6-ethyl-phenyl)-acetic acid] | 170 | 191
Cc1cc(-c2cc(NCCc3c(F)cc(Br)cc3F)ncn2)ccc1CC(=O)O [Example 254, (4-{6-[2-(4-Bromo-2,6-difluoro-phenyl)-ethylamino]-pyrimidin-4-yl}-2-methyl-phenyl)-acetic acid] | 880 | 753
Cc1cc(-c2cc(NCCc3c(F)cc(Br)cc3F)ncn2)cc(C)c1CC(=O)O [Example 255, (4-{6-[2-(4-Bromo-2,6-difluoro-phenyl)-ethylamino]-pyrimidin-4-yl}-2,6-dimethyl-phenyl)-acetic acid] | 283 | 344
Cc1cc(-c2cc(NCCc3c(F)cc(Br)cc3F)ncn2)cc(F)c1CC(=O)O [Example 256, (4-{6-[2-(4-Bromo-2,6-difluoro-phenyl)-ethylamino]-pyrimidin-4-yl}-2-fluoro-6-methyl-phenyl)-acetic acid] | 584 | 574
CCc1cc(-c2cc(NCCc3c(F)cc(Br)cc3F)ncn2)cc(C)c1CC(=O)O [Example 257, (4-{6-[2-(4-Bromo-2,6-difluoro-phenyl)-ethylamino]-pyrimidin-4-yl}-2-ethyl-6-methyl-phenyl)-acetic acid] | 239 | 212
Fc1cc(Br)cc(F)c1CCNc1cc(-c2ccc3[nH]ccc3c2)ncn1 [Example 258, [2-(4-Bromo-2,6-difluoro-phenyl)-ethyl]-[6-(1H-indol-5yl)-pyrimidin-4-yl]amine] | 174 | 77
O=C(O)Cc1ccc(-c2cc(NCCc3c(F)cc(Br)cc3F)ncn2)cc1OC1CC1 [Example 260, (4-{6-[2-(4-Bromo-2,6-difluoro-phenyl)-ethylamino]-pyrimidin-4-yl}-2-cyclopropoxy-phenyl)-acetic acid] | 755 | 204

SMILES | IC50 (PTRGER4 (EP4)) [nM] | IC50 (PTGER2 (EP2)) [nM]
CN1C(=O)NCc2ccc(-c3cc(NCCc4c(F)cc(Br)cc4F)ncn3)cc21 [Example 262, 7-{6-[2-(4-Bromo-2,6-difluoro-phenyl)-ethylamino]-pyrimidin-4-yl}-1-methyl-3,4-dihydro-1H-quinazolin-2-one] | 149 | 88
Cc1cc(-c2cc(NCCc3c(F)cc(Br)cc3F)ncn2)cc(Cl)c1CC(=O)O [Example 264, (4-{6-[2-(4-Bromo-2,6-difluoro-phenyl)-ethylamino]-pyrimidin-4-yl}-2-chloro-6-methyl-phenyl)-acetic acid] | 465 | 372
NC(=O)Nc1ccc(-c2cc(NCCc3c(F)cc(Br)cc3F)ncn2)cc1 [Example 265, (4-{6-[2-(4-Bromo-2,6-difluoro-phenyl)-ethylamino]-pyrimidin-4-yl}-phenyl)-urea] | 452 | 242
O=c1[nH]c2ccc(-c3cc(NCCc4c(F)cc(Br)cc4F)ncn3)cc2o1 [Example 266, 6-{6-[2-(4-Bromo-2,6-difluoro-phenyl)-ethylamino]-pyrimidin-4-yl}-3H-benzooxazol-2-one] | 368 | 65
Fc1cc(Br)cc(F)c1CCNc1cc(-c2ccc3[nH]ncc3c2)ncn1 [Example 267, [2-(4-Bromo-2,6-difluoro-phenyl)-ethyl]-[6-(1H-indazol-5-yl)-pyrimidin-4-yl]amine] | 183 | 70
CCn1cc(-c2cc(NCCc3c(F)cc(Br)cc3F)ncn2)cc1C(=O)O [Example 269, 4-{6-[2-(4-Bromo-2,6-difluoro-phenyl)-ethylamino]-pyrimidin-4-yl}-1-ethyl-1H-pyrrole-2-carboxylic acid] | 768 | 258
CCCn1cc(-c2cc(NCCc3c(F)cc(Br)cc3F)ncn2)cc1C(=O)O [Example 270, 4-{6-[2-(4-Bromo-2,6-difluoro-phenyl)-ethylamino]-pyrimidin-4-yl}-1-propyl-1H-pyrrole-2-carboxylic acid] | 700 | 316
O=C(O)c1coc2cc(-c3cc(NCCc4c(F)cc(Br)cc4F)ncn3)ccc12 [Example 272, 6-{6-[2-(4-Bromo-2,6-difluoro-phenyl)-ethylamino]-pyrimidin-4-yl}-benzofuran-3-carboxylic acid] | 426 | 174
CCOc1c(C(=O)O)ccc(-c2cc(NCCc3c(F)cc(Br)cc3F)ncn2)c1F [Example 274, 4-{6-[2-(4-Bromo-2,6-difluoro-phenyl)-ethylamino]-pyrimidin-4-yl}-2-ethoxy-3-fluoro-benzoic acid] | 646 | 160
CCCc1cc(-c2cc(NCCc3c(F)cc(Br)cc3F)ncn2)ccc1Cc1noc(=O)[nH]1 [Example 284, 3-(4-{6-[2-(4-Bromo-2,6-difluoro-phenyl)-ethylamino]-pyrimidin-4-yl}-2-propyl-benzyl)-[1,2,4]oxadiazol-5(4H)-one] | 199 | 295
CCOc1cc(-c2cc(NCCc3c(F)cc(Br)cc3F)ncn2)ccc1-c1noc(=S)[nH]1 [Example 290, 3-(4-{6-[2-(4-Bromo-2,6-difluoro-phenyl)-ethylamino]-pyrimidin-4-yl}-2-ethoxy-phenyl)-[1,2,4]oxadiazole-5(4H)-thione] | 28 | 48
COc1cc(C(N)=O)ccc1-c1cc(NCCc2c(F)cc(Br)cc2F)ncn1 [Example 292, 4-{6-[2-(4-Bromo-2,6-difluoro-phenyl)-ethylamino]-pyrimidin-4-yl}-3-methoxy-benzamide] | 893 | 100
CCOc1cc(-c2cc(NCCc3c(F)cc(Br)cc3F)ncn2)ccc1C(N)=O [Example 297, 4-{6-[2-(4-Bromo-2,6-difluoro-phenyl)-ethylamino]-pyrimidin-4-yl}-2-ethoxy-benzamide] | 236 | 21
CCOc1cc(-c2cc(NCCc3c(F)cc(Br)cc3F)ncn2)ccc1C(=O)NC [Example 298, 4-{6-[2-(4-Bromo-2,6-difluoro-phenyl)-ethylamino]-pyrimidin-4-yl}-2-ethoxy-N-methyl-benzamide] | 301 | 128
CCNC(=O)c1ccc(-c2cc(NCCc3c(F)cc(Br)cc3F)ncn2)cc1OCC [Example 299, 4-{6-[2-(4-Bromo-2,6-difluoro-phenyl)-ethylamino]-pyrimidin-4-yl}-2-ethoxy-N-ethyl-benzamide] | 255 | 145
CCOc1cc(-c2cc(NCCc3c(F)cc(Br)cc3F)ncn2)ccc1C(=O)NCCOC [Example 301, 4-{6-[2-(4-Bromo-2,6-difluoro-phenyl)-ethylamino]-pyrimidin-4-yl}-2-ethoxy-N-(2-methoxy-ethyl)-benzamide] | 640 | 118
CCOc1cc(-c2cc(NCCc3c(F)cc(Br)cc3F)ncn2)ccc1C(=O)NCC(C)(C)O [Example 302, 4-{6-[2-(4-Bromo-2,6-difluoro-phenyl)-ethylamino]-pyrimidin-4-yl}-2-ethoxy-N-(2-hydroxy-2-methyl-propyl)-benzamide] | 565 | 121

Reference: US11712438B2, “Phenyl derivatives as PGE2 receptor modulators” (IDORSIA PHARMACEUTICALS LTD, priority 2017, dated 2023)
